Experiment: molar heat capacity at constant pressure
Settings: 101.33 kPa, Crystal, Vacuum adiabatic calorimetry

O.O.OC[C@H]1O[C@H](O[C@H]2O[C@H](CO)[C@@H](O)[C@H](O)[C@H]2O)[C@H](O)[C@@H](O)[C@@H]1O [D-(+)-trehalose dihydrate]
Settings | molar heat capacity at constant pressure [J/K/mol]
13.55 K | 6.385
14.6 K | 7.838
15 K | 8.51
15.59 K | 9.345
16.61 K | 10.96
17.67 K | 12.73
18.75 K | 14.64
19.81 K | 16.57
20 K | 16.78
20.85 K | 18.51
21.9 K | 20.53
22.93 K | 22.57
23.97 K | 24.62
25.02 K | 26.77
26.11 K | 29
27.24 K | 31.35
28.42 K | 33.79
29.57 K | 36.22
30 K | 37.06
30.71 K | 38.61
31.92 K | 41.15
33.18 K | 43.81
34.5 K | 46.58
35.82 K | 49.36
37.15 K | 52.14
38.46 K | 54.9
39.78 K | 57.62
40 K | 58.13
41.15 K | 60.45
42.54 K | 63.33
43.91 K | 66.14
45.27 K | 68.9
46.63 K | 71.67
48.02 K | 74.49
49.43 K | 77.32
50 K | 78.42
50.88 K | 80.24
52.39 K | 83.22
53.93 K | 86.27
55.51 K | 89.39
56.3 K | 90.95
57.99 K | 94.25
59.66 K | 97.53
60 K | 98.14
61.39 K | 100.85
63.18 K | 104.27
64.99 K | 107.74
66.83 K | 111.22
68.66 K | 114.67
70 K | 117.19
70.49 K | 118.11
72.33 K | 121.52
74.17 K | 124.94
76.04 K | 128.4
77.89 K | 131.81
79.75 K | 135.21
80 K | 135.65
81.63 K | 138.61
83.51 K | 142.01
85.4 K | 145.39
87.31 K | 148.81
89.22 K | 152.17
90 K | 153.54
91.14 K | 155.56
93.09 K | 158.95
95.06 K | 162.41
97.04 K | 165.84
98.99 K | 169.18
100 K | 170.91
100.9 K | 172.45
102.78 K | 175.65
104.63 K | 178.78
106.45 K | 181.89
108.25 K | 184.88
110 K | 187.82
110.03 K | 187.85
111.78 K | 190.76
113.51 K | 193.65
115.22 K | 196.52
116.9 K | 199.3
118.57 K | 202
120 K | 204.35
120.3 K | 204.92
122.1 K | 207.75
123.94 K | 210.99
125.83 K | 213.81
127.75 K | 216.99
129.72 K | 220.18
130 K | 220.6
131.71 K | 223.29
133.7 K | 226.52
135.72 K | 229.81
137.73 K | 232.95
139.73 K | 236.18
140 K | 236.57
141.73 K | 239.27
143.74 K | 242.56
145.72 K | 245.6
147.72 K | 248.78
149.71 K | 251.89
150 K | 252.32
151.71 K | 254.95
153.75 K | 258.14
155.79 K | 261.37
157.84 K | 264.6
159.89 K | 267.82
160 K | 267.93
161.93 K | 270.95
163.96 K | 274.13
165.96 K | 277.24
167.95 K | 280.33
169.92 K | 283.36
170 K | 283.46
171.88 K | 286.43
173.83 K | 289.42
175.76 K | 292.43
177.63 K | 295.3
179.56 K | 298.22
180 K | 299
181.49 K | 301.33
183.41 K | 304.3
185.35 K | 307.28
187.29 K | 310.3
189.22 K | 313.27
190 K | 314.53
191.14 K | 316.25
193.07 K | 319.27
195.02 K | 322.27
196.95 K | 325.32
198.87 K | 328.28
200 K | 330.09
200.8 K | 331.37
202.74 K | 334.35
204.67 K | 337.37
206.6 K | 340.29
208.53 K | 343.33
210 K | 345.69
210.48 K | 346.48
212.42 K | 349.61
214.34 K | 352.52
216.28 K | 355.42
220 K | 361.36
220.18 K | 361.71
222.12 K | 364.67
224.04 K | 367.73
225.95 K | 370.88
227.85 K | 373.65
229.74 K | 376.66
230 K | 377.12
231.62 K | 379.52
233.49 K | 382.68
235.35 K | 385.55
237.2 K | 388.42
239.04 K | 391.36
240 K | 392.98
240.87 K | 394.34
242.69 K | 397.3
244.52 K | 400.18
246.37 K | 403.04
248.24 K | 406.16
250 K | 408.95
250.12 K | 409.17
252 K | 412.27
253.8 K | 415.1
255.61 K | 417.77
257.43 K | 420.98
259.28 K | 423.94
260 K | 425.06
261.14 K | 426.99
263.01 K | 430.01
264.88 K | 433.05
266.76 K | 435.05
268.64 K | 439.07
270 K | 441.31
270.53 K | 442.21
272.4 K | 445.33
274.28 K | 448.34
276.17 K | 451.18
278.06 K | 454.48
279.95 K | 457.55
280 K | 457.7
281.85 K | 460.72
283.75 K | 463.95
285.66 K | 466.99
287.57 K | 470.12
289.49 K | 473.55
290 K | 474.26
291.41 K | 476.85
293.32 K | 479.88
295.23 K | 482.95
297.16 K | 486.02
298.15 K | 487.87
299.07 K | 489.45
300 K | 490.98
300.98 K | 492.63

Reference: the NIST ThermoML archive (doi:10.1016/j.jct.2006.03.021)
